“And” between values parts separate entries of the source, which are not always exact repeats. Identical values can stand only once.
Experiments:
EPM-Infected Horses = experiment: Treatment of naturally occurring clinical EPM in horses with Ponazuril paste (clinical score); assay type: in vivo
Description: The compound was formulated into a paste using Ponazuril as a 15% active ingredient (a.i.) as described in EXAMPLE 1. It was administered to horses already diagnosed with EPM once a day for 28 days at a dose rate between 2.5 mg/Kg and 10 mg/Kg.
Naturally occurring clinical cases of EPM were well characterized by signalment and laboratory diagnosis. The diagnosis used for incorporation of EPM-positive horses into this trial was as follows: Confirmed asymmetrical neurological deficit as determined by a standardized neurological examination, to include radiography, indicative of EPM; Positive Western Blot for Sarcocystis neurona IgG; Red Blood Cell count below 500 cells/mL; CSF indices--Total Protein<90, IgG index>0.3. AQ quotient<2.2.
Additional requirements were that the horses were not suffering from diseases other than EPM. Therefore, they had to meet the following criteria: Negative CSF (<1:4) for EHV-1; Normal serum values for Vitamin E (.2.0 μg/mL); Lack of seizure disorders; Lack of behavior disorders.
Diagnosed horses were randomly assigned to groups. Group 1 horses received the paste formulation daily at a dose rate of 5 mg/Kg whereas Group 2 horses received the paste formulation daily at a dose rate of 10 mg/Kg. The treatment dose was based on body weight. The horses were evaluated for a period of 90 days (approximately 60 days after discontinuation of treatment) in order to determine that treatment was indeed effective. The response to treatment was scored using the following system:
1) 0=complete success-clinically normal with a negative CSF; 2) 1=Deficit just detected at a normal gait; 3) 2=Deficit easily detected and exaggerated by backing, turning, swaying, jaw loin pressure and neck extension; 4) 3=Deficit very prominent on walking, Facial turning, loin pressure or neck extension; 5) 4=Stumbling, tripping and falling down spontaneously; 6) 5=Recumbent, unable to rise. An improvement of one (1) unit in the score was considered a significant improvement.

[1] = test system: Bovine turbinate (BT) cells; assay type: cell-based; details: uninfected BT cells
Description: (§1) Bovine turbinate (BT) cells were used for all in vitro studies. Cells were grown to confluency in 25 cm^2 flasks in RMPI 1640 media supplemented with 10% v/v fetal bovine serum (FBS), 100 Units penicillin (G/mL), […] streptomycin/mL and 5×10^-2 mM 2-mercpatoethanol. After cell confluence was obtained, cells were maintained in the same media with reduced FBS (2% v/v). Cell cultures were incubated at 37 C. in a humidified atmosphere containing 5% carbon dioxide and 95% air.
The assay used to determine the effectiveness of Ponazuril was the Microtiter Monolayer Disruption Assay (MMDA). This assay was used to determine if the parasites or compound were toxic for BT cells. Flat bottomed 96-well microtiter plates were inoculated with BT cells and the resulting monolayers were used to determine the effects of Toltrazuril and Ponazuril on merozoite production as measured by CPE (plaque formation). […]

Sarcocystis falcatula = experiment: Microtiter Monolayer Disruption Assay (MMDA), Sarcocystis falcatula; assay type: cell-based, Sarcocystis falcatula strain SF1; details: BT cells
Description: In order to determine the scope of protection provided by Ponazuril, in vitro testing was conducted. The following strains of parasites were evaluated for their sensitivity to this compound: Strain SN3 of Sarcocystis neurona; strain SF1 of Sarcocystis falcatula; strain RH of Toxoplasma gondii; and the NC-1 strain of Neospora caninum. Ponazuril was tested at 2 concentrations (1 μg/mL and 10 μg/mL).
as §1
For growth of parasites, BT cell monolayers were infected with parasites and examined with an inverted microscope for the development of lesions (cytopathic effect, "CPE") or the presence of many extracellular merozoites. Once lesions were observed, or many extracellular parasites were present, the monolayer was scraped with the tip of a 5 mL pipette and 1 to 3 drops of the merozoite-containing fluid was transferred to two flasks of fresh BT cells. Merozoites of S. neurona and S. falcatula were passaged in this manner every 5 to 10 days while the tachyzoites of T. gondii and N. caninum were passaged every 3 to 4 days.
The assay used to determine the effectiveness of Ponazuril was the Microtiter Monolayer Disruption Assay (MMDA). This assay was used to determine if the parasites or compound were toxic for BT cells. Flat bottomed 96-well microtiter plates were inoculated with BT cells and the resulting monolayers were used to determine the effects of Toltrazuril and Ponazuril on merozoite production as measured by CPE (plaque formation). Monolayers were inoculated with parasites (S. neurona or S. falcatula at a count of 50,000/well, T. gondii at a level of 10,000/well, and N. caninum at 20,000/well. All wells were inoculated with the test compound 2 hours after infection. Untreated and […] monolayer wells served as parasite controls and uninfected agent treated BT cells served as toxicity controls. Each treatment was examined in replicates of 6. Each well was visually monitored daily and the assay was stopped when 90-100% of the untreated merozoite infected cells had lysed (90-100% CPE). All wells of the plates were rinsed in Phosphate Buffered Saline (PBS) and fixed in 100% methanol for 5 minutes after which they were stained in crystal violet solution. […]

[2] = Drug levels in cerebral spinal fluid after repeated doses of Toltrazuril in horses; assay type: in vivo; design: Drug level in Cerebral Spinal Fluid, Day 10 / AVG drug level in Cerebral Spinal Fluid, Day 10: unit not given here; details: for AVG drug level in Cerebral Spinal Fluid, Day 10: group average; for Drug level in Cerebral Spinal Fluid, Day 10: individual horse
Description: This experiment was conducted in order to determine whether triazineones such as Toltrazuril can pass the blood-brain barrier. Normal horses were divided into three groups of three horses per group. Group 1 horses received Toltrazuril administered orally as a 5% suspension at a dose level of 2.5 mg/Kg. Group 2 horses received Toltrazuril administered orally as a 5% suspension at a dose level of 5.0 mg/Kg. Group 3 horses received Toltrazuril administered orally as a 5% suspension at a dose level of 7.5 mg/Kg. The dosing was repeated daily for 10 days. Blood samples were drawn at 48, 96 and 240 hours and the concentration of Toltrazuril, Toltrazuril sulfoxide and Ponazuril in the serum was measured. Ten days after the start of the treatment (Day 10), a sample of cerebral spinal fluid was removed from each horse and the concentrations of Toltrazuril, Toltrazuril Sulfoxide and Ponazuril were again measured in these samples. The concentrations of Toltrazuril, Toltrazuril Sulfoxide and Ponazuril in the serum and cerebral spinal fluid are reported in TABLES 5a and 5b.

[3] = individual horse, 5 mg/Kg paste daily for 28 days, score 0=complete success to 5=recumbent, listed as Toltrazuril Sulfone
[4] = individual horse, 10 mg/Kg paste daily for 28 days, score 0=complete success to 5=recumbent, listed as Toltrazuril Sulfone
[5] = sum of scores of group, 5 mg/Kg daily for 28 days
[6] = sum of scores of group, 10 mg/Kg daily for 28 days
[7] = Toltrazuril 2.5 mg/Kg oral daily for 10 days
[8] = Toltrazuril 5.0 mg/Kg oral daily for 10 days
[9] = Toltrazuril 7.5 mg/Kg oral daily for 10 days

SMILES: Cc1cc(-n2c(=O)[nH]c(=O)n(C)c2=O)ccc1Oc1ccc(S(=O)(=O)C(F)(F)F)cc1 [Ponazuril]
- improvement in total scores, Group 1 versus Group 2 (EPM-Infected Horses; 5 mg/Kg versus 10 mg/Kg): approximately equivalent
- horses showing a significant improvement in clinical score by day 90 (EPM-Infected Horses; 10 mg/Kg, treated for 28 days, improvement of 1 unit significant): 100%
- effectiveness for the active treatment of EPM in horses (EPM-Infected Horses; either 5 mg/Kg or 10 mg/Kg): effective
- clinical score, Day 28, 5 mg/Kg Dose (EPM-Infected Horses; [3]): 1 and 2 and 0 and 3
- clinical score, Day 90, 5 mg/Kg Dose (EPM-Infected Horses; [3]): 2 and 1 and 0 and 3
- clinical score, Day 28, 10 mg/Kg Dose (EPM-Infected Horses; [4]): 2 and 1 and 0
- clinical score, Day 90, 10 mg/Kg Dose (EPM-Infected Horses; [4]): 1 and 0
- clinical score, Day 0, 5 mg/Kg Dose (EPM-Infected Horses; individual horse, before treatment, 5 mg/Kg paste daily for 28 days, score 0=complete success to 5=recumbent, listed as Toltrazuril Sulfone): 2 and 3
- clinical score, Day 0, 10 mg/Kg Dose (EPM-Infected Horses; individual horse, before treatment, 10 mg/Kg paste daily for 28 days, score 0=complete success to 5=recumbent, listed as Toltrazuril Sulfone): 4 and 3 and 2
- TOTAL clinical score, Day 28, 5 mg/Kg Dose (EPM-Infected Horses; [5]): 13
- TOTAL clinical score, Day 90, 5 mg/Kg Dose (EPM-Infected Horses; [5]): 6
- TOTAL clinical score, Day 28, 10 mg/Kg Dose (EPM-Infected Horses; [6]): 15
- TOTAL clinical score, Day 90, 10 mg/Kg Dose (EPM-Infected Horses; [6]): 4
- TOTAL clinical score, Day 0, 5 mg/Kg Dose (EPM-Infected Horses; sum of scores of group, before treatment, 5 mg/Kg): 17
- TOTAL clinical score, Day 0, 10 mg/Kg Dose (EPM-Infected Horses; sum of scores of group, before treatment, 10 mg/Kg): 19
- toxicity to the BT cells [1]: not toxic
- inhibition at 0.1 µg/mL (Sarcocystis falcatula; 0.1 μg/mL, read-out: Percent Inhibition of Cell Destruction, 0.1 μg/mL): 61%
- inhibition at 1 µg/mL (Sarcocystis falcatula; 1 μg/mL, read-out: Percent Inhibition of Cell Destruction, 1 μg/mL): 100%
- inhibition at 5 µg/mL (Sarcocystis falcatula; 5.0 μg/mL, read-out: Percent Inhibition of Cell Destruction, 5.0 μg/mL): 100%
- inhibition at 10 µg/mL (Sarcocystis falcatula; 10 μg/mL, read-out: Percent Inhibition of Cell Destruction, 10 μg/mL): 100%
- AVG drug level in Cerebral Spinal Fluid, Day 10 [2, 7]: 0.09
- Drug level in Cerebral Spinal Fluid, Day 10 [2, 7]: 0.09 and 0.07 and 0.11
- AVG drug level in Cerebral Spinal Fluid, Day 10 [2, 8]: 0.16
- Drug level in Cerebral Spinal Fluid, Day 10 [2, 8]: 0.12 and 0.14 and 0.21
- AVG drug level in Cerebral Spinal Fluid, Day 10 [2, 9]: 0.22
- Drug level in Cerebral Spinal Fluid, Day 10 [2, 9]: 0.23 and 0.17 and 0.27
- concentration in the cerebral spinal fluid compared with Toltrazuril ([2]; after treatment of horses with Toltrazuril): essentially equivalent to the concentration of Toltrazuril itself

From patent publication US6150361A, “Triazineone compounds for treating diseases due to sarcosystis, neospora and toxoplasma” (Bayer Corporation, priority 1998, dated 2000)
